# In patent US10874652B2, “Muscle regeneration” (The Research Foundation for The State University of New York, priority 2016, dated 2020):
# Tests used:
# dystrophic (mdx4cv) mice [1] = assay: Muscle fibrosis, Picrosirius red staining of gastrocnemius muscle; format: in vivo, mouse; settings: 200 mg/kg, 12 weeks, vs saline
# Experimental: (§1) The objective of this experiment was to determine whether elastase inhibitors can reduce inflammation and/or fibrosis. To test this, cross-sections of the gastrocnemius muscle of mice that were treated with either Elastatinal or saline solution were stained with Picrosirius red, or labelled with an anti-CD45 antibody or an anti-laminin antibody. Picrosirius red allows to differentiate between collagen and the rest of the tissue as it stains the collagen a different colour. The anti-CD45 antibody allows the detection of infiltrating leukocytes (which are a marker of inflammation), and the anti-laminin antibody allows the detection of the periphery of myofibres. Both, the amount of fibrosis and the amount of infiltrated CD45+ leukocytes were reduced with Elastatinal treatment, supporting the hypothesis that elastase activity inhibition reduces fibrosis and inflammation.
# (§2) For this experiment, the mice were treated with an injection of 200 mg/kg of Elastatinal dissolved in a saline solution (0.9% NaCl) to a concentration of 20 mg/mL. Control mice were treated with an equal volume of saline. […]
# The amount of Picrosirius red staining was quantified by selecting re pixels and quantifying the red area using the ImageJ function “Analyze particles”. Averages of 10 technical replicates for each one of 3 biological replicates (N=30) were analysed (FIG. 10 B).
# elastase = assay: Elastase activity in cell culture medium (fluorescent substrate cleavage); format: biochemical; settings: 100 μM inhibitor, 0.75 U/mL purified elastase pre-incubated 1 hour
# Experimental: The percentage of substrate cleavage (substrate conversion to product) was monitored over time by recording product formation every minute for 30 minutes (30 cycles of instrument recording) using a Pierce EZ-Reader.
# dystrophic (mdx4cv) mice [2] = assay: Grip strength, Kondziela's inverted screen test in dystrophic mice; format: in vivo, mouse
# Experimental: To test whether elastase inhibition is effective in counteracting the devastating effects of the muscular dystrophy symptoms, we injected dystrophic (mdx4cv) mice with either 100 mg/Kg body weight of Elastatinal dissolved in sterile saline solution (0.9% […]) or with vehicle (sterile saline solution) alone (n=3) twice a week for 6 weeks then measured the grip strength of all 4 limbs using Kondziela's inverted screen test. Each animal was offered three attempts to reach 90 seconds of grip before falling then the best performance was assigned a score (1 to 6 for every 15 seconds spent on the grid, e.g.: 1-14 seconds=score 1, 15-29 seconds=score 2, etc.). Scores were averaged and plotted as mean±the standard error of the mean.
# In addition to the above mentioned experiment, Elastatinal was dissolved in a saline solution (0.9% NaCl) to a concentration of 20 mg/mL and then either 200 mg/Kg body weight of Elastatinal or an equal volume of saline solution were injected twice a week for 12 weeks intraperitoneally into dystrophic (mdx4cv) mice. At 8, 10 and 12 weeks of treatment, muscle function (grip strength) of the mice was measured using Kondziella's inverted screen test. A 1-6 score was assigned for every 15 seconds of the total time spent by the mouse on the inverted grid such that a score of 6 indicates at least 90 seconds of latency to fall. […] Error bars are S.E.M. **=p<0.01.
# dystrophic (mdx4cv) mice [3] = assay: Muscle fibre size (minimum Feret diameter) in dystrophic mice; format: in vivo, mouse; settings: 200 mg/Kg intraperitoneally twice a week, 12 weeks, gastrocnemius muscle, vs saline
# Experimental: To test whether inhibition of elastase activity promoted muscle regeneration in vivo in dystrophic mice, dystrophic (mdx4cv strain) mice were treated with either the elastase inhibitor Elastatinal (dissolved in saline solution) or saline solution for 12 weeks and muscle fibre size was assayed.
# Elastatinal (Enzo Life Sciences) was dissolved in a saline solution (0.9% NaCl) to the concentration of 20 mg/mL and then, either 200 mg/Kg body weight of Elastatinal or an equal volume of saline solution were injected twice a week intraperitoneally into the dystrophic (mdx4cv) mice. After 12 weeks of treatment animals were culled and several muscles dissected, embedded in Optimal Cutting Medium (OCT, Fisher) and frozen in liquid nitrogen-cooled isopentane (Sigma) for histopathological analysis.
# To measure the extent of muscle regeneration, myofibre size was estimated. Sections of the gastrocnemius muscle of either Elastatinal-treated or saline-treated mice were immunostained to detect laminin which marks the periphery of each muscle fibre and then the programme SMASH′ was used to calculate the minimum Feret diameter as a direct measure of myofibre size.
# myoblasts = assay: Elastase-induced myoblast cell loss ex vivo; format: cell-based; settings: 100 μM inhibitor with 0.75 U/mL elastase, 24 hours, myoblasts on uncoated plates
# Experimental: In order to determine the effect of elastase inhibitors on cultures myoblasts, myoblasts were seeded at the density of 7,000 cells/well in 12 multi-well plates (Corning) and grown for 1 day in growth medium. Twenty-four hours after plating, 0.75 U/mL of purified elastase (Sigma Aldrich) were added to the culture medium in the absence (Ela) or presence of either 100 μM Sivelestat (Ela+Sivelestat) or 100 μM Elastatinal (Ela+Elastatinal) and cultured for additional 24 hours. Quantification of total cell numbers per image was done in triplicates and plotted as average±standard error of the mean. NT=non-treated cultures, that received neither elastase nor elastase inhibitors. **=p<0.01.
# dystrophic (mdx4cv) mice [4] = assay: Muscle inflammation, CD45+ leukocyte infiltration of gastrocnemius muscle; format: in vivo, mouse; settings: 200 mg/kg, 12 weeks, vs saline
# Experimental: as §1, §2
# To measure the extent of inflammation, the numbers of infiltrating leucocyte, recognized by immunostaining for CD45 (BD Biosciences) were scored as percentage of area positive to CD45 immunostaining using a written script for Fiji softwate (available at http://fiji.sc) (FIG. 10 D).
Compound,amount of fibrosis (dystrophic (mdx4cv) mice [1]),reduction of elastase activity (elastase),"muscle strength (grip strength) (dystrophic (mdx4cv) mice [2]; 100 mg/Kg twice a week for 6 weeks, vs vehicle)","grip strength (dystrophic (mdx4cv) mice [2]; 200 mg/Kg intraperitoneally twice a week for 12 weeks, measured at 8, 10 and 12 weeks, vs saline)",muscle fibre size (minimum Feret diameter) (dystrophic (mdx4cv) mice [3]),elastase-induced cell loss (myoblasts),amount of infiltrated CD45+ leukocytes (dystrophic (mdx4cv) mice [4])
CC(C)C[C@H](NC(=O)N[C@H](C(=O)N[C@@H](CCC(N)=O)C(=O)N[C@@H](C)C=O)[C@@H]1CCNC(=N)N1)C(=O)O [Elastatinal],reduced,approximately 80%,improved muscle strength,statistically significantly improved grip strength,increasing muscle fibre size,prevents elastase-induced cell loss,reduced
CC(C)(C)C(=O)Oc1ccc(S(=O)(=O)Nc2ccccc2C(=O)NCC(=O)O)cc1 [Sivelestat],,approximately 80%,,,,prevents elastase-induced cell loss,
